Measurements published in PMC4657098, “A Review of the Updated Pharmacophore for the Alpha 5 GABA(A) Benzodiazepine Receptor Model” (International Journal of Medicinal Chemistry, 2015).
Several values for one entry are separate records, joined by “and”; a condition that tells them apart may be missing. Identical values can stand only once. Like-named read-outs stand apart in the source and are kept apart here.

Tests used:
[1] = target: T1, α6β3γ2 GABAA/BzR (Homo sapiens, UniProt P18507+Q16445); experiment: Competition binding to HEK cell membranes, α6β3γ2; set-up: expressed in transfected cells
[2] = target: T2, α5β3γ2 GABAA/BzR (Homo sapiens, UniProt P18507+P31644); set-up: expressed in transfected cells; host or cells: LTK cells (given for XLi-093 only); details: read-out: Affinity Ki α5, cited from earlier work
[3] = target: T3, α3β3γ2 GABAA/BzR (Homo sapiens, UniProt P18507+P34903); set-up: expressed in transfected cells; host or cells: LTK cells (given for XLi-093 only); details: read-out: Affinity Ki α3, cited from earlier work
[4] = target: T4, α4β3γ2 GABAA/BzR (Homo sapiens, UniProt P18507+P48169); details: read-out: Affinity Ki α4, cited from earlier work
T4 construct: expressed in transfected cells; host or cells: LTK cells (given for XLi-093 only)

[5] = target: T5, α2β3γ2 GABAA/BzR (Homo sapiens, UniProt P18507+P47869); set-up: expressed in transfected cells; host or cells: LTK cells (given for XLi-093 only); details: read-out: Affinity Ki α2, cited from earlier work
[6] = target: T5, α2β3γ2 GABAA/BzR; experiment: Competition binding to HEK cell membranes, α2β3γ2; set-up: expressed in transfected cells
[7] = target: T4, α4β3γ2 GABAA/BzR; experiment: biochemical; format: binding
[8] = target: T2, α5β3γ2 GABAA/BzR; experiment: Competition binding to HEK cell membranes, α5β3γ2; set-up: expressed in transfected cells
[9] = target: T1, α6β3γ2 GABAA/BzR; set-up: expressed in transfected cells; host or cells: LTK cells (given for XLi-093 only); details: read-out: Affinity Ki α6, cited from earlier work
[10] = target: T3, α3β3γ2 GABAA/BzR; experiment: Competition binding to HEK cell membranes, α3β3γ2; set-up: expressed in transfected cells
[11] = target: T6, α1β3γ2 GABAA/BzR (Homo sapiens, UniProt P14867+P18507); experiment: Competition binding to HEK cell membranes, α1β3γ2; set-up: expressed in transfected cells
[12] = target: T6, α1β3γ2 GABAA/BzR; set-up: expressed in transfected cells; host or cells: LTK cells (given for XLi-093 only); details: read-out: Affinity Ki α1, cited from earlier work
[13] = tested on: alcohol preferring and HAD rats; details: cited from earlier work; for rate at which rats self-administrated alcohol: alcohol preferring and HAD rats
[14] = tested on: baboons; details: cited from earlier work
[15] = tested on: Bz BS of GABA(A) receptors; details: cited from earlier work; for modulation: Supplement Table 1
[16] = tested on: human airway smooth muscle cells; details: 200 μM; cited from earlier work
[17] = target: α2β3γ2 BzR/GABA(A); details: Figure 1; LTK cells; read-out: Binding affinity α2; cited from earlier work
[18] = target: α4β3γ2 BzR/GABA(A); details: Figure 1; LTK cells; read-out: Binding affinity α4; cited from earlier work
[19] = target: α3β3γ2 BzR/GABA(A); details: Figure 1; LTK cells; read-out: Binding affinity α3; cited from earlier work
[20] = target: α6β3γ2 BzR/GABA(A); details: Figure 1; LTK cells; read-out: Binding affinity α6; cited from earlier work
[21] = target: α5β3γ2 BzR/GABA(A); details: Figure 1; LTK cells; read-out: Binding affinity α5; cited from earlier work
[22] = target: T7, α3β2γ2 GABAA receptor (Homo sapiens, UniProt P18507+P34903); experiment: Radioligand binding (McKernan and Atack), α3β2γ2; details: Table 3; αxβ2γ2; means of two determinations; read-out: Binding affinity α3
T7 construct: expressed in transfected cells; host or cells: HEK cells
Protocol: (§1) Transfected HEK cells (beta2 gamma2 and desired alpha subtype) were harvested into phosphate-buffered saline, centrifuged at 3,000 g, and stored at −70°C until required. On the day of the assay, pellets were thawed and resuspended in sufficient volume of 50 mM Tris/acetate (pH 7.4 at 4°C) to give a total binding of approximately 1500–2000 dpm. […] Total assay volume was 0.5 mL and assays were carried out in 96-well plates and incubation time started by the addition of 0.1 mL of resuspended cell membranes. Following incubation for 1 hour at 4°C, assays were terminated by filtration through GF/B filters, washed with 10 mL ice cold buffer, dried, and then counted using a liquid scintillation counter. […] We have previously reported the synthesis of the following.

[23] = target: T8, α1β2γ2 GABAA receptor (Homo sapiens, UniProt P14867+P18507); experiment: Radioligand binding (McKernan and Atack), α1β2γ2; details: Table 3; αxβ2γ2; means of two determinations; read-out: Binding affinity α1
T8 construct: expressed in transfected cells; host or cells: HEK cells
Protocol: as §1

[24] = target: T9, α6β2γ2 GABAA receptor (Homo sapiens, UniProt P18507+Q16445); experiment: Radioligand binding (McKernan and Atack), α6β2γ2; details: Table 3; αxβ2γ2; means of two determinations; read-out: Binding affinity α6
T9 construct: expressed in transfected cells; host or cells: HEK cells
Protocol: as §1

[25] = target: T10, α5β2γ2 GABAA receptor (Homo sapiens, UniProt P18507+P31644); experiment: Radioligand binding (McKernan and Atack), α5β2γ2; details: Table 3; αxβ2γ2; means of two determinations; read-out: Binding affinity α5
T10 construct: expressed in transfected cells; host or cells: HEK cells
Protocol: as §1

[26] = target: T11, α2β2γ2 GABAA receptor (Homo sapiens, UniProt P18507+P47869); experiment: Radioligand binding (McKernan and Atack), α2β2γ2; details: Table 3; αxβ2γ2; means of two determinations; read-out: Binding affinity α2
T11 construct: expressed in transfected cells; host or cells: HEK cells
Protocol: as §1

[27] = target: T12, α4β2γ2 GABAA receptor (Homo sapiens, UniProt P18507+P48169); experiment: Radioligand binding (McKernan and Atack), α4β2γ2; details: Table 3; αxβ2γ2; means of two determinations; read-out: Binding affinity α4
T12 construct: expressed in transfected cells; host or cells: HEK cells
Protocol: as §1

[28] = tested on: dopamine neurons in the VTA; details: rat, in vivo; cited from earlier work

CCOC(=O)c1cc2c(cn1)[nH]c1ccc(C#C[Si](C)(C)C)cc12 [WY-B-99-1]
Ki ([1]; Ki α6): 2000 nM
Ki ([2]; Figure 33, αxβ3γ2): 47 nM
Ki ([3]; Figure 33, αxβ3γ2): 5.58 nM
Ki ([4]; Figure 33, αxβ3γ2): 2000 nM
Ki ([5]; Figure 33, αxβ3γ2): 4.5 nM
Ki ([6]; Ki α2): 4.5 nM
Ki ([6]; read-out: Ki α2): 4.5 nM
Ki [7]: 2000 nM
Ki ([8]; Ki α5): 47 nM
Ki ([8]; read-out: Ki α5): 47 nM
Ki ([9]; Figure 33, αxβ3γ2): 2000 nM
Ki ([10]; Ki α3): 5.58 nM
Ki ([10]; read-out: Ki α3): 5.58 nM
Ki ([11]; Ki α1): 4.4 nM
Ki ([11]; read-out: Ki α1): 4.4 nM
Ki ([12]; Figure 33, αxβ3γ2): 4.4 nM

CC(C)(C)OC(=O)c1cc2c(cn1)[nH]c1ccc(C#C[Si](C)(C)C)cc12 [WY-B-14 (WYS7)]
Ki ([1]; Ki α6): 1000 nM and 5000 nM
Ki ([2]; Figure 33, αxβ3γ2): 108 nM
Ki ([3]; Figure 33, αxβ3γ2): 36 nM
Ki ([4]; Figure 33, αxβ3γ2): 2000 nM
Ki ([5]; Figure 33, αxβ3γ2): 30 nM
Ki ([6]; Ki α2): 30 nM and 165 nM
Ki [7]: 2000 nM
Ki ([9]; Figure 33, αxβ3γ2): 1000 nM
Ki ([10]; Ki α3): 36 nM and 245 nM
Ki ([11]; Ki α1): 6.84 nM and 8.5 nM
Ki ([12]; Figure 33, αxβ3γ2): 6.8 nM

O=C(OCC(F)(F)F)c1cc2c(cn1)[nH]c1ccc(-c3cccs3)cc12 [WY-B-27-2]
Ki ([1]; read-out: Ki α6): 2000 nM
Ki [2]: 449 nM
Ki [3]: 72 nM
Ki [4]: 2000 nM
Ki [5]: 13 nM
Ki ([6]; read-out: Ki α2): 111 nM
Ki ([7]; read-out: Ki α4): 2000 nM
Ki ([8]; read-out: Ki α5): 449 nM
Ki [9]: 2000 nM
Ki ([10]; read-out: Ki α3): 72 nM
Ki ([11]; read-out: Ki α1): 9.19 nM
Ki [12]: 9.2 nM

CCCOc1cc2c(cn1)[nH]c1ccccc12.Cl [3 PBC, 3-propoxy-β-carboline hydrochloride]
Ki ([1]; Ki α6): 1000 nM
rate at which rats self-administrated alcohol [13]: reduce the rate
sucrose self-administration [13]: little or no effect
Ki ([4]; Figure 33, αxβ3γ2): 1000 nM
activity in baboons [14]: active
modulation [15]: antagonist
pharmacological properties compared with classical benzodiazepine receptor antagonists [15]: near GABA neutral antagonists
Ki ([9]; Figure 33, αxβ3γ2): > 1000 nM

COc1ccc(-c2ccc(=N)n(CCCC(=O)O)n2)cc1 [gabazine, reference compound]
effect on the attenuation by SH-053-2′F-R-CH3 of the calcium increase [16]: significantly blocked

C#Cc1ccc2c(c1)C(=O)N(C)Cc1c(C(=O)OCC)ncn1-2 [RY-80 (3)]
Ki [17]: 21.4 nM
Ki [18]: 5.3 nM
Ki [19]: 25.8 nM
Ki [20]: 28.8 nM
Ki [21]: 0.49 nM

C#Cc1ccc2c(c1)C(c1ccccc1)=N[C@@H](C)c1c(C(=O)OCC)ncn1-2 [SH-053-S-CH3, (16)]
Ki [22]: 1250 nM
Ki [23]: 1670 nM
Ki [24]: > 5000 nM
Ki [25]: 206 nM
Ki [26]: 1260 nM
Ki [27]: > 5000 nM

O=C(CCCN1CCC(O)(c2ccc(Cl)cc2)CC1)c1ccc(F)cc1 [haloperidol, reference compound]
number of spontaneously active dopamine neurons after repeated treatment, SAL and MAM rats [28]: reduction

NC1=N[C@H](O)[C@H]2[C@H]3O[C@]4(O)O[C@@H]([C@@H](O)[C@@]2(N1)[C@@H]4O)[C@]3(O)CO [TTX, Tetrodotoxin, reference compound]
cells/track after infusion in the ventral HPC of haloperidol-treated rats [28]: reversed the haloperidol-induced reduction in cells/track in SAL, but not MAM

CN1CCc2cccc3c2[C@H]1Cc1ccc(O)c(O)c1-3 [apomorphine, reference compound]
number of active dopamine neurons, MAM rats withdrawn from repeated HAL [28]: no effect
number of spontaneously active dopamine neurons, SAL rats withdrawn from repeated HAL [28]: increased

C#Cc1ccc2c(c1)C(c1ccccc1)=N[C@H](C)c1c(C(=O)OCC)ncn1-2 [SH-053-R-CH3, (15)]
Ki [22]: 1180 nM
Ki [23]: 2030 nM
Ki [24]: > 5000 nM
Ki [25]: 949 nM
Ki [26]: 2380 nM
Ki [27]: > 5000 nM

CC(C)(C)OC(=O)c1cc2c(cn1)[nH]c1ccccc12 [BCCt]
Ki ([1]; Ki α6): 5000 nM
rate at which rats self-administrated alcohol [13]: reduce the rate
sucrose self-administration [13]: little or no effect
Ki ([4]; Figure 33, αxβ3γ2): 1000 nM
Ki ([6]; Ki α2): 0.0419 nM
modulation [15]: antagonist
pharmacological properties compared with classical benzodiazepine receptor antagonists [15]: near GABA neutral antagonists
Ki ([8]; Ki α5): 69.3 nM
Ki ([8]; read-out: Ki α5): 111 nM
Ki ([9]; Figure 33, αxβ3γ2): > 5000 nM
Ki ([10]; Ki α3): 0.035 nM
Ki ([11]; Ki α1): 0.03 nM

O=C(OCC(F)(F)F)c1cc2c(cn1)[nH]c1ccc(I)cc12 [WY-B-20]
Ki ([1]; Ki α6): 3000 nM
Ki ([2]; Figure 33, αxβ3γ2): 122 nM
Ki ([3]; Figure 33, αxβ3γ2): 47 nM
Ki ([4]; Figure 33, αxβ3γ2): 2000 nM
Ki ([5]; Figure 33, αxβ3γ2): 39 nM
Ki ([6]; Ki α2): 39 nM
Ki [7]: 2000 nM
Ki ([8]; Ki α5): 122 nM
Ki ([9]; Figure 33, αxβ3γ2): 3000 nM
Ki ([10]; Ki α3): 47 nM
Ki ([11]; Ki α1): 12 nM
Ki ([12]; Figure 33, αxβ3γ2): 12 nM
